This note sets out measurements from US6610736B1, “16-Halogen-epothilone derivatives, method for producing them and their pharmaceutical use” (Schering AG, priority 1999, dated 2003).

In assay [1] the test system is human MCF-7 breast carcinoma cell line. The assay can be described thus: growth inhibition of MCF-7 cells, crystal-violet assay. The format is cell-based. To be noted: for IC50: crystal-violet assay; for active strength in comparison to reference compound epothilone D: statement on Table 1; for active strength in comparison to reference compound epothilone B: statement on Table 2. From the text:
(§1) a) IC50 values [nM] for the growth inhibition of human MCF-7 breast- and multi-drug-resistant NCl/ADR carcinoma cell lines of the epothilone derivatives with 13Z-olefins in a crystal-violet assay in comparison to epothilone D.
(§2) b) IC50 values [nM] for the growth inhibition of human MCF-7 breast- and multidrug-resistant NCl/ADR carcinoma cell lines of the epothilone derivatives with 13,14-α-epoxide in a crystal-violet assay in comparison to epothilone B.

In assay [2] the test system is multi-drug-resistant NCl/ADR carcinoma cell line. Description: growth inhibition of multi-drug-resistant NCl/ADR cells, crystal-violet assay. It counts as cell-based, human. The following applies: for IC50: crystal-violet assay; for Selectivity = IC50 (NCl/ADR) : IC50 (MCF-7): ratio of IC50 NCl/ADR to MCF-7; for selectivity in multi-drug-resistant cell line NCl/ADR in comparison to epothilone B: statement on Table 2.
Text: as §1, §2

[3] abbreviates: Table 2, 13,14-α-epoxides, in comparison to epothilone B.
The mark [4] stands for this setting: Table 1, 13Z-olefins, in comparison to epothilone D.

`Cc1nc(C=C(F)C2CC3OC3(C)CCCC(C)C(O)C(C)C(=O)C3(CCC3)C(O)CC(=O)O2)cs1` [Example 10A, (1S,3S(Z),7S,10R,11S,12S,16R)-7,11-Dihydroxy-3-((1-fluoro)-2-(2-methyl-4-thiazolyl)ethenyl)-10,12,16-trimethyl-8,8-(1,3-trimethylene)-4,17-dioxabicyclo[14.1.0]hepta-deca-5,9-dione]: the IC50 in assay [1] (setting [3]) amounted to 2.1 nM; in assay [2] (setting [3]), 3.9 nM. For the same compound, in assay [2] (Table 2), the “Selectivity = IC50 (NCl/ADR) : IC50 (MCF-7)” value (“Selectivity = IC50 (NCl/ADR) ” below) is 1.9. The “selectivity in multi-drug-resistant cell line NCl/ADR in comparison to epothilone B” value in assay [2] is “improved selectivity”.
Regarding `CC(=O)O[C@H]1C(=O)[C@@]2(C)[C@H]([C@H](OC(=O)c3ccccc3)[C@]3(O)C[C@H](OC(=O)[C@H](O)[C@@H](NC(=O)c4ccccc4)c4ccccc4)C(C)=C1C3(C)C)[C@]1(OC(C)=O)CO[C@@H]1C[C@@H]2O` [Taxol, reference compound], the concentration for half-maximal inhibition (IC50) is 4 nM in assay [1] (Homo sapiens, MCF7, Table 1, 13Z-olefins, in comparison to epothilone D); over 100 nM in assay [2] (Homo sapiens, Table 1, 13Z-olefins, in comparison to epothilone D); over 100 nM in assay [2] (setting [3]). For the same compound, the “Selectivity = IC50 (NCl/ADR) ” value in assay [2] (Table 1) and in assay [2] (Table 2) was >>25 throughout.
Take `C/C1=C/C[C@@H](/C(F)=C/c2csc(C)n2)OC(=O)C[C@H](O)C2(CCC2)C(=O)[C@H](C)[C@@H](O)[C@@H](C)CCC1` [Example 9]: the IC50 in assay [1] (setting [4]) is 5 nM; in assay [2] (setting [4]) it was 10 nM. Moreover, the “active strength in comparison to reference compound epothilone D” value in assay [1] is recorded as “significantly higher active strength”. Moreover, the “Selectivity = IC50 (NCl/ADR) ” value in assay [2] (Table 1) is given as 2.0.
As for `C/C1=C/C[C@@H](/C(C)=C/c2csc(C)n2)OC(=O)C[C@H](O)C(C)(C)C(=O)[C@H](C)[C@@H](O)[C@@H](C)CCC1` [Epothilone D], the IC50 in assay [1] (setting [4]) stood at 23 nM; in assay [2] (setting [4]) it was 50 nM. The “Selectivity = IC50 (NCl/ADR) ” value in assay [2] (Table 1) stood at 2.2.
Take `CC[C@H]1C(=O)C(C)(C)[C@@H](O)CC(=O)O[C@H](/C(F)=C/c2ccccn2)C/C=C(/C)CCC[C@H](C)[C@@H]1O` [Example 17, (4S,7R,8S,9S,13Z,16S(Z))-4,8-Dihydroxy-16-(1-fluoro-2-(2-pyridyl)ethenyl)-7-ethyl-1-oxa-5,5,9,13-tetramethyl-cyclohexadec-13-ene-2,6-dione]: the IC50 in assay [1] (setting [4]) came to 6.1 nM; in assay [2] (setting [4]), 33 nM. In addition, the “active strength in comparison to reference compound epothilone D” value in assay [1] is “significantly higher active strength”. In assay [2] (Table 1), the “Selectivity = IC50 (NCl/ADR) ” value was 5.4.
With `Cc1nc(/C=C(\F)[C@@H]2C[C@@H]3O[C@]3(C)CCC[C@H](C)[C@H](O)[C@@H](C)C(=O)C(C)(C)[C@@H](O)CC(=O)O2)cs1` [Example 3B, (1S,3S(Z),7S,10R,11S,12S,16R)-7,11-dihydroxy-3-(1-fluoro-2-(2-methyl-4-thiazolyl)ethenyl)-8,8,10,12,16-pentamethyl-4,17-dioxabicyclo[14.1.0]heptadecane-5,9-dione], the IC50 in assay [1] (setting [3]) worked out at 0.3 nM; in assay [2] (setting [3]) it was 1.4 nM. Also, in assay [1], the “active strength in comparison to reference compound epothilone B” value is “comparable or significantly higher active strength”. For the same compound, the “Selectivity = IC50 (NCl/ADR) ” value in assay [2] (Table 2) was 4.7. The “selectivity in multi-drug-resistant cell line NCl/ADR in comparison to epothilone B” value in assay [2] is reported as “improved selectivity”.
As to `Cc1nc(/C=C(\Cl)[C@@H]2C[C@@H]3O[C@]3(C)CCC[C@H](C)[C@H](O)[C@@H](C)C(=O)C(C)(C)[C@@H](O)CC(=O)O2)cs1` [Example 7A, (1S,3S(Z),7S,10R,11S,12S,16R)-7,11-Dihydroxy-3-(1-chloro-2-(2-methyl-4-thiazolyl)ethenyl)-8,8,10,12,16-pentamethyl-4,17-dioxabicyclo[14.1.0]heptadecane-5,9-dione], the IC50 in assay [1] (setting [3]) amounted to 0.8 nM; in assay [2] (setting [3]) it was 6 nM. Further, in assay [2] (Table 2), the “Selectivity = IC50 (NCl/ADR) ” value is listed as 7.5.
Regarding `C/C1=C/C[C@@H](/C(Cl)=C/c2csc(C)n2)OC(=O)C[C@H](O)C(C)(C)C(=O)[C@H](C)[C@@H](O)[C@@H](C)CCC1` [Example 5, (4S,7R,8S,9S,13(Z),16S(Z))-4,8-Dihydroxy-16-(1-chloro-2-(2-methyl-4-thiazolyl)ethenyl)-1-oxa-5,5,7,9,13-pentamethyl-cyclohexadec-13-ene-2,6-dione], the figures for the concentration for half-maximal inhibition (IC50) in assay [1] (setting [4]) and in assay [2] (setting [4]) were 5.1 nM and 37 nM, respectively. The “Selectivity = IC50 (NCl/ADR) ” value in assay [2] (Table 1) is 7.3.
As for `CC[C@H]1C(=O)C(C)(C)[C@@H](O)CC(=O)O[C@H](/C(F)=C/c2ccccn2)C[C@@H]2O[C@]2(C)CCC[C@H](C)[C@@H]1O` [Example 20A, (1S,3S(Z),7S,10R,11S,12S,16R)-7,11-Dihydroxy-10-ethyl-3-(1-fluoro-2-(2-pyridyl)ethenyl)-8,8,12,16-tetramethyl-4,17-dioxabicyclo[14.1.0]heptadecane-5,9-dione], the IC50 turned out to be 0.6 nM in assay [1] (setting [3]) and 4.6 nM in assay [2] (setting [3]). The “active strength in comparison to reference compound epothilone B” value in assay [1] is listed as “comparable or significantly higher active strength”. In addition, the “Selectivity = IC50 (NCl/ADR) ” value in assay [2] (Table 2) worked out at 7.6.
As for `C/C(=C\c1csc(C)n1)[C@@H]1C[C@@H]2O[C@]2(C)CCC[C@H](C)[C@H](O)[C@@H](C)C(=O)C(C)(C)[C@@H](O)CC(=O)O1` [Epothilone B, reference compound], the half-maximal inhibitory concentration (IC50) in assay [1] (setting [3]) is 0.6 nM; in assay [2] (setting [3]), 3.5 nM. The “Selectivity = IC50 (NCl/ADR) ” value in assay [2] (Table 2) worked out at 5.8.
`CC[C@H]1C(=O)C2(CCC2)[C@@H](O)CC(=O)O[C@H](/C(F)=C/c2csc(C)n2)C[C@@H]2O[C@]2(C)CCC[C@H](C)[C@@H]1O` [Example 14A, (1S,3S(Z),7S,10R,11S,12S,16R)-7,11-Dihydroxy-12,16-dimethyl-10-ethyl-3-(1-fluoro-2-(2-methyl-4-thiazolyl)ethenyl) 8,8-(1,3-trimethylene)-4,17-dioxabicyclo[14.1.0]hepta-decane-5,9-dione]: the results for the IC50 in assay [1] (setting [3]) and in assay [2] (setting [3]) were 0.5 nM and 3.5 nM, respectively. The “active strength in comparison to reference compound epothilone B” value in assay [1] was “comparable or significantly higher active strength”. For the same compound, the “Selectivity = IC50 (NCl/ADR) ” value in assay [2] (Table 2) is on record as 7.0.
As to “(4S,7R,8S,9S,13(Z),16S(Z)-4,8-Dihydroxy-9,13-diethyl-7-ethyl-16-(1-fluoro-2-(2-methyl-4-thiazolyl)ethenyl)-1-oxa-5,5-(1,3-trimethylene)cyclohexadec-13-ene-2,6-dione [Example 13]”, the half-maximal inhibitory concentration (IC50) in assay [1] (setting [4]) turned out to be 5.8 nM; in assay [2] (setting [4]), 28 nM. Also, the “active strength in comparison to reference compound epothilone D” value in assay [1] is “significantly higher active strength”. The “Selectivity = IC50 (NCl/ADR) ” value in assay [2] (Table 1) is 4.8.
The like results for `C/C1=C/C[C@@H](/C(F)=C/c2csc(C)n2)OC(=O)C[C@H](O)C(C)(C)C(=O)[C@H](C)[C@@H](O)[C@@H](C)CCC1` [Example 1, (4S,7R,8S,9S,13(Z),16S(Z))-4,8-Dihydroxy-16-(1-fluoro-2-(2-methyl-4-thiazolyl)ethenyl)-1-oxa-5,5,7,9,13-pentamethyl-cyclohexadec-13-ene-2,6-dione] were, in that order, 4.3 nM, 12 nM, “significantly higher active strength” and 2.8.

By IC50 is commonly meant the concentration that inhibits the measured activity by half. Lower therefore signals greater potency in that assay.
